This note sets out measurements from patent EP1506011B1, “AN ANTIBODY SELECTIVE FOR A TUMOR NECROSIS FACTOR-RELATED APOPTOSIS-INDUCING LIGAND RECEPTOR AND USES THEREOF” (The UAB Research Foundation, priority 2001, dated 2003).

What is called viability is a per cent measure of how many cells are alive, often set against a control.

Residues, ends and D or L forms follow the SMILES beside them. *: point of attachment. Cbz = O=C(OCc1ccccc1)*; CH2F = FC*

The subject of one experiment is 2LMP xenografts. The experiment in a line: Analysis of apoptosis in xenografts, TUNEL. The class given is in vivo, Athymic nude mice. The following applies: for stained cells: day 14, 100 µg TRA-8 days 7 and 10, adriamycin 3 mg/kg or paclitaxel 10 mg/kg days 8 and 11, untreated 4%; for intense stained cells: day 14, same doses, untreated 1%. The method, then: One group of mice was untreated. The xenografts were dissected for the study of apoptosis on day 14 after tumor cell injection. The reason for the substantial reduction in treatment intensity compared to our standard treatment protocol was to allow adequate tumor tissue for analysis on day 14. Tunel assay for apoptosis in tumor xenografts was performed as follows. Five-micron paraffin sections of tissue were mounted on Superfrost/Plus slides and heated at 58°C for 1 h. Tissue sections were deparaffinized in three changes of xylene and rehydrated with one change of absolute ethanol, 95% ethanol, and 70% ethanol, each in 5-min increments. Then, the sections were placed in Tris-buffered saline (0.5M Tris base, 0.15 M NaCl, 0.0002% Triton X-100, pH 7.6). Apoptotic nuclei were detected using an Apop Tag Peroxidase kit (Intergen, Purchase, NY). Proteinase K (20 µg/ml in distilled deionized H2O) was added to the tissue specimens and incubated at room temperature for 15 min. Endogenous peroxidases were quenched with an aqueous solution of 3% hydrogen peroxide for 5 min. Sections were treated with an equilibration buffer for 30 min and then incubated with the TdT/enzyme (diluted in labeling reaction mix) for 1 h at 37°C using parafilm covers. During this incubation, the TdT enzyme binds the 3'-OH ends of DNA fragments and catalyzes the addition of digoxigenin-labeled and unlabeled deoxynucleotides. Negative controls were incubated with distilled H2O (diluted in labeling reaction mix) instead of the TdT enzyme. A stop buffer was added for 10 min at room temperature to terminate the labeling reaction. An anti-digoxigenin conjugate was added to each slide for 30 min. The chromagen 3,3' DAB was used to visualize the labeled 3' OH end of DNA fragments. The slides were then rinsed in deionized water and lightly counterstained with hematoxylin, dehydrated using graded alcohols and xylene and coverlsipped using Permount. Approximately 10 random fields were evaluated for percentage of Tunel stained and percentage of intensely stained apoptotic bodies throughout the tissue.

Experiment [1] deals with 2LMP human breast cancer xenografts. The experiment can be described thus: TRA-8 therapy alone or with chemotherapy or radiation in mice bearing breast cancer xenografts. The class given is in vivo, Athymic nude mice. The following applies: Figure 25 experiment; 200 µg TRA-8 i.p., adriamycin 6 mg/kg i.v. The method, then: Athymic nude mice were injected s.c. with 3 x 10^7 2LMP cells. […] The growth of tumors was monitored over time. […] Tumor size and regression rates were determined.
Data from 6 independent experiments were analyzed by individual experiment. Treatment combinations were compared with respect to in vivo anti-tumor efficacy, i.e., inhibition of tumor growth, which was measured as three endpoints; extension of tumor doubling times, percentage of tumor regressions, and growth rates over time. The actual number of days at which the tumor doubled in surface area (product of two diameters) relative to baseline on day 7 after tumor cell injection was used in the doubling time analysis. The nonparametric Kruskal-Wallis test was used for median tumor doubling time comparisons between treatments. Fisher's exact test was used to compare the proportions of tumor regressions and relapse-free regressions across treatment groups. […]
A total of 166 animals, 10 treatment groups, and 6 independent experiments were included in the aggregate analysis. […] The median tumor doubling times were analyzed using the Kruskal-Wallis test and Fisher's exact test was used to compare the proportions of tumor regressions and relapse-free regressions across treatment groups.

Another experiment deals with PC-3 cells. The experiment in a line: Combination study of TRA-8 with Paclitaxel, XTT viability. The class given is cell-based. The following applies: Homo sapiens, PC-3, read-out: cell viability. The method, then: Human prostate cancer cell line PC-3 is obtained from American Tissue Culture Collection (ATCC) and maintained in F-12K Nutrient Mixture (21127-022, Gibco BRL) containing 10% fetal bovine serum (FBS, Hyclone), 1% L-Glutamine-200 mM (25030-149, Gibco BRL) and 0.5% Penicillin Streptomycin Solution (P-7539, Sigma). RPMI1640 medium (MED-008, IWAKI) supplemented with 10% FBS and 0.5% Penicillin Streptomycin Solution is used in the following experiment. Exponentially growing PC-3 cells are collected by trypsinization and washed twice with fresh medium. The cells are then counted, resuspended in fresh medium at a density of 5 x 10^4 cells/ml and distributed in triplicate into flat-bottomed 96 well plates (3598, Corning-Coster) in a total volume of 100 µl/well one day before the start of the experiment. A representative anti-cancer drug, Paclitaxel (169-18611, Wako) dissolved in dimethylsulfoxide (10 mg/ml) is diluted in fresh medium and then added to the 96-well plates containing the cells at 50 µl/well. The final concentrations of dimethylsulfoxide are less than 0.1%. […] After incubation for a further 24 hr, 50 µl of Minimum Essential Medium (11095-098, Gibco BRL) containing 1 mg/ml of XTT and […] of PMS is added to the wells and the plates are incubated for 6 hr. OD450 is then measured by SPECTRA MAX 250 (Molecular Devices) and the cell viability is calculated as follows.

For another experiment, the system named is Jurkat cells. The experiment can be described thus: Caspase inhibition assay, Jurkat cells with TRA-8. The following applies: 50 ng/ml TRA-8 overnight. The class given is cell-based, human.

Protocol for Jurkat cells: Cell viability was determined by ATPLite, MTT, and PI exclusion assays after overnight culture. […] Cell viability was determined by ATPLite. […] Cell viability was determined by ATPLite. The results are presented as mean±SEM of triplicate cultures of two experiments. d. […] Cell viability was determined by ATPLite assay. […] Cell viability of hepatocytes was determined by the ATPLite assay. […] Cell viability was determined by the ATPLite assay.

Take `COc1cccc2c1C(=O)c1c(O)c3c(c(O)c1C2=O)C[C@@](O)(C(=O)CO)C[C@@H]3O[C@H]1C[C@H](N)[C@H](O)[C@H](C)O1` [Adriamycin, doxorubicin]: in the experiment on 2LMP xenografts, the stained cells worked out at 8% and the intense stained cells is listed as 6%. Moreover, the “inhibition of tumor growth compared to untreated controls” value in experiment [1] is “did not differ from controls”.

On to `CC(=O)O[C@H]1C(=O)[C@@]2(C)[C@H]([C@H](OC(=O)c3ccccc3)[C@]3(O)C[C@H](OC(=O)[C@H](O)[C@@H](NC(=O)c4ccccc4)c4ccccc4)C(C)=C1C3(C)C)[C@]1(OC(C)=O)CO[C@@H]1C[C@@H]2O` [Paclitaxel], for which, in the experiment with 2LMP xenografts, the stained cells is 7% and the intense stained cells was found to be 2%. Also, the viability at 0.2 µM with PC-3 cells was > 40%.

As for `CC(NC(=O)C(NC(=O)OCc1ccccc1)C(C)C)C(=O)NC(CC(=O)O)C(=O)CF` (stereo not drawn) [Z-VAD] (Cbz-Val-Ala-Asp-CH2F; configuration not given here), in the experiment on Jurkat cells, the “inhibition of TRA-8-mediated cell death” value is “completely inhibited”.
